# Activity calls are given as the source filed them. The calls are words filed in the database; no cut-off is given here.
# Columns and labels:
# [1] = tested on: Acinetobacter baumannii; test: Antimicrobial activity against Acinetobacter baumannii 506; assay type: functional
# [2] = tested on: Acinetobacter baumannii; test: Antimicrobial activity against Acinetobacter baumannii 1327; assay type: functional
# [3] = tested on: Acinetobacter baumannii; test: Antimicrobial activity against Acinetobacter baumannii 1417; assay type: functional
# [4] = T>MIC in Acinetobacter baumannii infected C57BL/6 mouse pneumonia model at 60 mg/kg, im; assay type: functional; conditions: route intramuscular
# [5] = Cmax in C57BL/6 mouse pneumonia model at 60 mg/kg, im; assay type: ADME, organism-based; set-up: dose 60 mg/kg, route intramuscular; conditions: in vivo
# [6] = Half life in New Zealand rabbit meningitis model at 30 mg/kg, im; assay type: ADME, organism-based, Oryctolagus cuniculus; set-up: dose 30 mg/kg, route intramuscular; conditions: in vivo
# [7] = Ratio of AUC to MIC for Acinetobacter baumannii 1327 in pharmacokinetic-pharmacodynamic New Zealand rabbit meningitis model at 30 mg/kg, im; assay type: functional; conditions: route intramuscular
# [8] = tested on: Acinetobacter baumannii; test: Antibacterial activity against Acinetobacter baumannii infected in C57BL/6 mouse model assessed as survival rate at total dose of 240 mg/kg/day, im administered as four divided doses measured after 72 hrs post last dose relative to control; assay type: functional; conditions: route intramuscular
# [9] = Ratio of AUC to MIC for Acinetobacter baumannii 1327 in pharmacokinetic-pharmacodynamic C57BL/6 mouse pneumonia model at 60 mg/kg, im; assay type: functional; conditions: route intramuscular
# [10] = tested on: Acinetobacter baumannii; test: Antimicrobial activity against Acinetobacter baumannii 506 after 24 hrs by time-kill assay; assay type: functional, organism-based
# [11] = T>MIC in Acinetobacter baumannii infected New Zealand rabbit meningitis model at 30 mg/kg, im; assay type: functional; conditions: route intramuscular
# [12] = tested on: Acinetobacter baumannii; test: Antimicrobial activity against Acinetobacter baumannii 1327 after 24 hrs by time-kill assay; assay type: functional, organism-based
# [13] = Half life in C57BL/6 mouse pneumonia model at 60 mg/kg, im; assay type: ADME, organism-based; set-up: dose 60 mg/kg, route intramuscular; conditions: in vivo
# [14] = AUC in New Zealand rabbit meningitis model at 30 mg/kg, im; assay type: ADME, organism-based, Oryctolagus cuniculus; set-up: dose 30 mg/kg, route intramuscular; conditions: in vivo
# [15] = tested on: Acinetobacter baumannii; test: Antimicrobial activity against Acinetobacter baumannii 1417 after 24 hrs by time-kill assay; assay type: functional, organism-based
# [16] = tested on: Acinetobacter baumannii; test: Antimicrobial activity against Acinetobacter baumannii infected in C57BL/6 mouse model assessed as reduction in bacterial count per gram of lung at total dose of 240 mg/kg/day, im administered as four divided doses after 72 hrs (RVb = 10.6+/-0.27); assay type: functional, organism-based
# [17] = tested on: Acinetobacter baumannii; test: Antimicrobial activity against Acinetobacter baumannii infected in C57BL/6 mouse model assessed as reduction in bacterial count in blood at total dose of 240 mg/kg/day, im administered as four divided doses after 72 hrs; assay type: functional; set-up: scale not given: the % may be the effect or the level left; conditions: route intramuscular
# [18] = Ratio of Cmax to MIC for Acinetobacter baumannii 1327 in pharmacokinetic-pharmacodynamic C57BL/6 mouse pneumonia model at 60 mg/kg, im; assay type: functional; conditions: route intramuscular
# [19] = Ratio of Cmax to MIC for Acinetobacter baumannii 1327 in pharmacokinetic-pharmacodynamic New Zealand rabbit meningitis model at 30 mg/kg, im; assay type: functional; conditions: route intramuscular
# [20] = AUC in C57BL/6 mouse pneumonia model at 60 mg/kg, im; assay type: ADME, organism-based; set-up: dose 60 mg/kg, route intramuscular; conditions: in vivo
# [21] = Cmax in New Zealand rabbit meningitis model at 30 mg/kg, im; assay type: ADME, organism-based, Oryctolagus cuniculus; set-up: dose 30 mg/kg, route intramuscular; conditions: in vivo
# [22] = tested on: Acinetobacter baumannii; test: Antimicrobial activity against Acinetobacter baumannii 940 after 24 hrs by time-kill assay; assay type: functional, organism-based
# [23] = tested on: Acinetobacter baumannii; test: Antimicrobial activity against Acinetobacter baumannii 940; assay type: functional
# [24] = species: Homo sapiens; test: AUC in human; assay type: ADME, organism-based, Plasma; conditions: in vivo
# [25] = tested on: Mus musculus; test: Cmax in C57BL/6 mouse pneumonia model at 20 mg/kg, im; assay type: ADME, organism-based; set-up: dose 20 mg/kg, route intramuscular; conditions: in vivo
# [26] = tested on: Oryctolagus cuniculus; test: Cmax in New Zealand rabbit meningitis model at 12 mg/kg, im; assay type: ADME, organism-based; set-up: dose 12 mg/kg, route intramuscular; conditions: in vivo
# [27] = tested on: Oryctolagus cuniculus; test: AUC in New Zealand rabbit meningitis model at 12 mg/kg, im; assay type: ADME, organism-based; set-up: dose 12 mg/kg, route intramuscular; conditions: in vivo
# [28] = tested on: Mus musculus; test: AUC in C57BL/6 mouse pneumonia model at 20 mg/kg, im; assay type: ADME, organism-based; set-up: dose 20 mg/kg, route intramuscular; conditions: in vivo
# [29] = tested on: Mus musculus; test: Half life in C57BL/6 mouse pneumonia model at 20 mg/kg, im; assay type: ADME, organism-based; set-up: dose 20 mg/kg, route intramuscular; conditions: in vivo
# [30] = tested on: Oryctolagus cuniculus; test: Half life in New Zealand rabbit meningitis model at 12 mg/kg, im; assay type: ADME, organism-based; set-up: dose 12 mg/kg, route intramuscular; conditions: in vivo
# [31] = tested on: Acinetobacter baumannii; test: Antimicrobial activity against Acinetobacter baumannii; assay type: functional, organism-based
# [32] = tested on: Acinetobacter baumannii; test: Antimicrobial activity against Acinetobacter baumannii infected in C57BL/6 mouse model assessed as reduction in bacterial count per gram of lung at total dose of 60 mg/kg/day, im administered as four divided doses after 72 hrs (RVb = 10.6+/-0.27); assay type: functional, organism-based
# [33] = Ratio of AUC to MIC for Acinetobacter baumannii 1327 in pharmacokinetic-pharmacodynamic C57BL/6 mouse pneumonia model at 12 mg/kg, im; assay type: functional, organism-based; set-up: dose 12 mg/kg
# [34] = Ratio of Cmax to MIC for Acinetobacter baumannii 1327 in pharmacokinetic-pharmacodynamic C57BL/6 mouse pneumonia model at 20 mg/kg, im; assay type: functional, organism-based; set-up: dose 20 mg/kg
# [35] = T>MIC in Acinetobacter baumannii infected C57BL/6 mouse pneumonia model at 20 mg/kg, im; assay type: functional, organism-based; set-up: dose 20 mg/kg
# [36] = tested on: Acinetobacter baumannii; test: Antibacterial activity against Acinetobacter baumannii 1327 infected in New Zealand rabbit meningitis model assessed as reduction in bacterial count in CSF at 25 mg/kg, im measured after 2 hrs of last dose (RVb = […]); assay type: functional, organism-based; set-up: dose 25 mg/kg
# [37] = tested on: Acinetobacter baumannii; test: Antibacterial activity against Acinetobacter baumannii 1327 infected in New Zealand rabbit meningitis model assessed as reduction in bacterial count in CSF at 25 mg/kg, im measured after 4 hrs of last dose (RVb = 5.2); assay type: functional, organism-based; set-up: dose 25 mg/kg
# [38] = tested on: Acinetobacter baumannii; test: Antibacterial activity against Acinetobacter baumannii 1327 infected in New Zealand rabbit meningitis model assessed as reduction in bacterial count in CSF at 25 mg/kg, im measured after 6 hrs of last dose (RVb = 5.5); assay type: functional, organism-based; set-up: dose 25 mg/kg
# [39] = Ratio of Cmax to MIC for Acinetobacter baumannii 1327 in pharmacokinetic-pharmacodynamic New Zealand rabbit meningitis model at 12 mg/kg, im; assay type: functional, organism-based; set-up: dose 12 mg/kg
# [40] = tested on: Oryctolagus cuniculus; test: Antiinflammatory activity in Acinetobacter baumannii 1327-infected New Zealand rabbit meningitis model assessed as in WBC count at 12 mg/kg, im after 6 hrs (RVb = 1 cells/ul); assay type: functional, organism-based; set-up: dose 12 mg/kg
# [41] = Ratio of AUC to MIC for Acinetobacter baumannii 1327 in pharmacokinetic-pharmacodynamic New Zealand rabbit meningitis model at 12 mg/kg, im; assay type: functional, organism-based; set-up: dose 12 mg/kg
# [42] = T>MIC in Acinetobacter baumannii infected New Zealand rabbit meningitis model at 12 mg/kg, im; assay type: functional, organism-based; set-up: dose 12 mg/kg
# [43] = tested on: Acinetobacter baumannii; test: Antibacterial activity against Acinetobacter baumannii infected in C57BL/6 mouse model assessed as survival rate at total dose of 60 mg/kg/day, im administered as four divided doses measured after 72 hrs post last dose relative to control; assay type: functional, organism-based
# [44] = tested on: Acinetobacter baumannii; test: Antimicrobial activity against Acinetobacter baumannii infected in C57BL/6 mouse model assessed as reduction in bacterial count in blood at total dose of 60 mg/kg/day, im administered as four divided doses after 72 hrs; assay type: functional, organism-based; set-up: scale not given: the % may be the effect or the level left
# [45] = tested on: Oryctolagus cuniculus; test: Antiinflammatory activity in Acinetobacter baumannii 1327-infected New Zealand rabbit meningitis model assessed as brain edema at 12 mg/kg, im; assay type: functional, organism-based; set-up: dose 12 mg/kg
compound,measurement,setting,value
CC1(C)[C@H](C(=O)O)N2C(=O)C[C@H]2S1(=O)=O [SULBACTAM],MBC,[1],32 µg/mL
same,MIC,[1],32 µg/mL
same,MBC,[2],32 µg/mL
same,MIC,[2],32 µg/mL
same,MBC,[3],32 µg/mL
same,MIC,[3],32 µg/mL
same,T>MIC,[4],1.29 h
same,Cmax,[5],89.5 µg/mL
same,half-life,[6],32.4 min
same,Ratio,[7],1.78
same,survival at 240 mg/kg/day,[8],40%
same,Ratio,[9],2.73
same,Activity,[10],Active
same,T>MIC,[11],0.84 h
same,Activity,[12],Active
same,half-life,[13],21 min
same,AUC,[14],57100 ng·h/mL
same,Activity,[15],Active
same,Activity,[16],Active
same,Activity,[17],33.3%
same,Ratio,[18],2.8
same,Ratio,[19],2.35
same,AUC,[20],87500 ng·h/mL
same,Cmax,[21],75.3 µg/mL
same,Activity,[22],Active
same,MBC,[23],32 µg/mL
same,MIC,[23],32 µg/mL
COLISTIN [listing 1 of 2 here],AUC,[24],23430 ng·h/mL
same,Cmax,[25],27.39 µg/mL
same,Cmax,[26],9 µg/mL
same,AUC,[27],41720 ng·h/mL
same,AUC,[28],26420 ng·h/mL
same,t1/2,[29],32.4 min
same,t1/2,[30],185 min
COLISTIN [listing 2 of 2 here],MIC,[31],0.5 µg/mL
same,Activity,[32],Active
same,Ratio,[33],52.8
same,MBC,[1],2 µg/mL
same,MIC,[1],0.5 µg/mL
same,Ratio,[34],54.8
same,MBC,[2],2 µg/mL
same,MIC,[2],0.5 µg/mL
same,MBC,[3],1 µg/mL
same,MIC,[3],0.5 µg/mL
same,T>MIC,[35],3.72 h
same,Activity,[36],5.2 log10CFU/ml
same,Activity,[37],4.7 log10CFU/ml
same,Activity,[10],Active
same,Activity,[38],4.3 log10CFU/ml
same,Activity,[12],Active
same,Ratio,[39],18
same,Activity,[40],4%
same,Ratio,[41],83.4
same,T>MIC,[42],11.4 h
same,Survival,[43],40%
same,Activity,[44],73.3%
same,Activity,[15],Active
same,Activity,[45],383 µL⁻¹
same,Activity,[22],Active
same,MBC,[23],8 µg/mL
same,MIC,[23],0.5 µg/mL
